{"source": "ChEMBL document CHEMBL1133417", "about": "“N-[[1-(2-phenylethyl)pyrrolidin-2-yl]methyl]cyclohexanecarboxamides as selective 5-HT1A receptor agonists” (Bioorg Med Chem Lett, 2000)", "key": {"[1]": {"target": "T1, D(2) dopamine receptor (Homo sapiens, UniProt P14416)", "T1 sequence (P14416 whole entry)": "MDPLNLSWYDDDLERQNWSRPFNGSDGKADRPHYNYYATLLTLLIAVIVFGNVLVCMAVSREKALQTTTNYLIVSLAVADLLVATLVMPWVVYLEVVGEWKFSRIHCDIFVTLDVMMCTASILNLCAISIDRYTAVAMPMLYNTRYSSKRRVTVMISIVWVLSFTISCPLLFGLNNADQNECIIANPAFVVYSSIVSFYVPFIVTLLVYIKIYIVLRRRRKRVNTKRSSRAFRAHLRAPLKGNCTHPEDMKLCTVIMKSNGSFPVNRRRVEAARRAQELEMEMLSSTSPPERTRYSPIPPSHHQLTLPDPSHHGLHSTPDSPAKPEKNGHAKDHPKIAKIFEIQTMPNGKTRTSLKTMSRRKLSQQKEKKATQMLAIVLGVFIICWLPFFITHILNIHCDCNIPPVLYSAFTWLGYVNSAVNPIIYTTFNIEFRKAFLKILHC", "assay": "Inhibitory concentration against binding of Dopamine receptor D2 by displacement of [3H]spiperone"}, "[2]": {"target": "T2, Serotonin 2 (5-HT2) receptor (Rattus norvegicus, UniProt P30994+P08909+P14842)", "assay": "Inhibitory concentration against 5-hydroxytryptamine 2 receptor from striata of male Wistar rats by displacement of [3H]-ketanserin", "format": "protein assay"}, "[3]": {"target": "T3, 5-hydroxytryptamine receptor 1A (Rattus norvegicus, UniProt P19327)", "T3 sequence (P19327 whole entry)": "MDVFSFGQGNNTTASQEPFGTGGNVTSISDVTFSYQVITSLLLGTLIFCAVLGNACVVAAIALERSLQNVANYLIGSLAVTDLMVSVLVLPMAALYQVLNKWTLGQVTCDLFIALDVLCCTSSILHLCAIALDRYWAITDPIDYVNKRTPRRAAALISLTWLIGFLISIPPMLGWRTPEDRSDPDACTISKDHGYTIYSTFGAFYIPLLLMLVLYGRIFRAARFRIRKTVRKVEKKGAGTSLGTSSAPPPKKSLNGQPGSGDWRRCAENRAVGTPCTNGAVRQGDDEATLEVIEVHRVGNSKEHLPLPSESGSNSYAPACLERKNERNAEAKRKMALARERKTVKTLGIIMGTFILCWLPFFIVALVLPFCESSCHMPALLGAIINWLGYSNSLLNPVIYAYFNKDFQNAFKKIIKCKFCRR", "assay": "Inhibitory concentration against binding of 5-hydroxytryptamine 1A receptor from striata of male Wistar rats by displacement of [3H]8-OH-DPAT"}, "[4]": {"target": "T2, Serotonin 2 (5-HT2) receptor", "assay": "Binding affinity for 5-hydroxytryptamine 2 receptor from striata of male Wistar rats by displacement of [3H]ketanserin", "format": "protein assay", "conditions": "for pKi: read-out: Ki"}, "[5]": {"target": "T3, 5-hydroxytryptamine receptor 1A", "assay": "Displacement of [3H]8-OH-DPAT from rat striata 5-hydroxytryptamine 1A receptor"}, "[6]": {"target": "T2, Serotonin 2 (5-HT2) receptor", "assay": "Inhibitory concentration against binding of 5-hydroxytryptamine 2 receptor from striata of male Wistar rats by displacement of [3H]-ketanserin", "format": "protein assay"}, "[7]": {"target": "T1, D(2) dopamine receptor", "assay": "Binding affinity for Dopamine receptor D2 by displacement of [3H]-spiperone"}}, "note": "pIC50, pKi: −log10 of the molar value."}
{"smiles": "O=C(NC[C@H]1CCCN1CCc1ccccc1)c1ccccc1", "values": [{"measurement": "pIC50", "setting": "[1]", "result": "< 6.00"}, {"measurement": "IC50", "setting": "[2]", "result": "> 1000", "unit": "nM l-1"}, {"measurement": "pIC50", "setting": "[3]", "result": "< 6.00"}]}
{"smiles": "O=C(NC[C@@H]1CCCN1CCc1ccccc1)c1ccccc1", "values": [{"measurement": "pIC50", "setting": "[1]", "result": "< 6.00"}, {"measurement": "Ki", "setting": "[4]", "result": 430, "unit": "nM l-1"}, {"measurement": "pKi", "setting": "[5]", "result": 8.34}]}
{"smiles": "CSc1cccc(C(=O)NC[C@H]2CCCN2CCc2ccccc2)c1", "values": [{"measurement": "pIC50", "setting": "[1]", "result": "< 6.00"}, {"measurement": "pKi", "setting": "[5]", "result": 6.96}, {"measurement": "IC50", "setting": "[6]", "result": "> 1000", "unit": "nM l-1"}]}
{"smiles": "COc1cc2c(c(C(=O)NC[C@@H]3CCCN3CCc3ccccc3)c1)OCC2", "values": [{"measurement": "Ki", "setting": "[4]", "result": 660, "unit": "nM l-1"}, {"measurement": "pKi", "setting": "[5]", "result": 7.68}, {"measurement": "pKi", "setting": "[7]", "result": 6.92}]}
{"smiles": "CSc1cc2c(c(C(=O)NC[C@H]3CCCN3CCc3ccccc3)c1)OCC2", "values": [{"measurement": "Ki", "setting": "[4]", "result": 430, "unit": "nM l-1"}, {"measurement": "pKi", "setting": "[5]", "result": 7.00}, {"measurement": "pKi", "setting": "[7]", "result": 8.17}]}
{"smiles": "CCCCN1CCC[C@@H]1CNC(=O)c1cc(Cl)cc2c1OCCN2C", "values": [{"measurement": "pKi", "setting": "[4]", "result": 7.07}, {"measurement": "pKi", "setting": "[7]", "result": 6.20}]}
{"smiles": "CN1CCOc2c(C(=O)NC[C@H]3CCCN3CCc3ccccc3)cc(Cl)cc21", "values": [{"measurement": "IC50", "setting": "[6]", "result": "> 1000", "unit": "nM l-1"}]}
{"smiles": "CN1CCOc2c(C(=O)NC[C@@H]3CCCN3CCc3ccccc3)cc(Cl)cc21", "values": [{"measurement": "pKi", "setting": "[4]", "result": 6.55}]}
{"smiles": "CCCCN1CCC[C@H]1CNC(=O)c1cc(Cl)cc2c1OCCN2C", "values": [{"measurement": "pKi", "setting": "[4]", "result": 6.52}, {"measurement": "pKi", "setting": "[7]", "result": 7.92}]}
{"smiles": "CSc1cccc(C(=O)NC[C@@H]2CCCN2CCc2ccccc2)c1", "values": [{"measurement": "pIC50", "setting": "[1]", "result": "< 6.00"}, {"measurement": "Ki", "setting": "[4]", "result": 160, "unit": "nM l-1"}, {"measurement": "pKi", "setting": "[5]", "result": 8.37}]}
{"smiles": "COc1ccc(SC)cc1C(=O)NC[C@@H]1CCCN1CCc1ccccc1", "values": [{"measurement": "Ki", "setting": "[4]", "result": 170, "unit": "nM l-1"}, {"measurement": "pKi", "setting": "[5]", "result": 7.62}, {"measurement": "pKi", "setting": "[7]", "result": 6.34}]}
{"smiles": "O=C(NC[C@H]1CCCN1CCc1ccccc1)C1CCCCC1", "values": [{"measurement": "pIC50", "setting": "[1]", "result": "< 6.00"}, {"measurement": "IC50", "setting": "[2]", "result": "> 1000", "unit": "nM l-1"}, {"measurement": "pKi", "setting": "[5]", "result": 6.72}]}
{"smiles": "O=C(NC[C@@H]1CCCN1CCc1ccccc1)C1CCCCC1", "values": [{"measurement": "pIC50", "setting": "[1]", "result": "< 6.00"}, {"measurement": "Ki", "setting": "[4]", "result": 240, "unit": "nM l-1"}, {"measurement": "pKi", "setting": "[5]", "result": 9.31}]}
{"smiles": "CCCN(CCC)C1CCc2cccc(O)c2C1", "note": "(stereo unspecified) [8-OH-DPAT]", "values": [{"measurement": "IC50", "setting": "[2]", "result": "> 1000", "unit": "nM l-1"}]}
{"smiles": "O=C(c1ccc(F)cc1)C1CCN(CCn2c(=O)[nH]c3ccccc3c2=O)CC1", "note": "[KETANSERIN]", "values": [{"measurement": "pKi", "setting": "[7]", "result": 6.62}, {"measurement": "pIC50", "setting": "[3]", "result": "< 6.00"}]}
